Each structure is given as a SMILES string. A value given as a limit tells only on which side of the number the result lay.

Chain of recombinant HCV NS5B (HCV RNA-dependent RNA polymerase) (P26663 2420-3010 limits assumed): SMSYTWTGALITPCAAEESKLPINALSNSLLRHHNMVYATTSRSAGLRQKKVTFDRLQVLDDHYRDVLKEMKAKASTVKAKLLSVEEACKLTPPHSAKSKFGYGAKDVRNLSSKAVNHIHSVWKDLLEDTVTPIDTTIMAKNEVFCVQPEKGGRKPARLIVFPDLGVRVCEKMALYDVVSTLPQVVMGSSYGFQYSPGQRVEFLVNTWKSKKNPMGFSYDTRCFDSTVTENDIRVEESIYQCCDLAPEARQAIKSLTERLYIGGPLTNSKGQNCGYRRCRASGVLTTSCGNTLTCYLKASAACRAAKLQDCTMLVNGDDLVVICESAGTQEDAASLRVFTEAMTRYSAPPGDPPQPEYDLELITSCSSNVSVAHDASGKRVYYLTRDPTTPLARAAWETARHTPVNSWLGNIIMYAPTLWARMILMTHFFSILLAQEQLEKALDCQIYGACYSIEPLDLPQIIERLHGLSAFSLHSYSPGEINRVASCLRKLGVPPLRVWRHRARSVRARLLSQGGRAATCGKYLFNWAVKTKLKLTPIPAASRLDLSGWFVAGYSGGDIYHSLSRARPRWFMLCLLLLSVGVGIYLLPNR

The first assay addresses recombinant HCV NS5B (HCV RNA-dependent RNA polymerase) (Hepatitis C virus genotype 1b, UniProt P26663). Description: biochemical. As to conditions: HCV polymerase activity, list of compounds of Example 27; read-out: IC50 (polymerase activity).
Turning to `NC1CCCCC1N(C(=O)c1ccc(Cl)cc1Cl)c1cc(-c2ccccc2)sc1C(=O)O` (stereo not shown) [Compound 549, 2-[(2-CARBOXY-5-PHENYL-THIOPHEN-3-YL)- (2,4-DICHLORO-BENZOYL)-AMINO]- CYCLOHEXYL-AMMONIUM; CHLORIDE], the IC50 (as a rule, the midpoint of a concentration-inhibition curve) was less than 5 µM. Same read-out and setting: under `Cc1cccc(-c2cc(N(C(=O)c3ccc(C)cc3O)C(C)C)c(C(=O)O)s2)c1` [Compound 502, 3-[(2-HYDROXY-4-METHYL-BENZOYL)- ISOPROPYL-AMINO]-5-#M!-TOLYL- THIOPHENE-2-CARBOXYLIC ACID] stands less than 5 µM; under `CC(C)N(C(=O)c1ccc(Cl)cc1Cl)c1cc(C2CCNCC2)sc1C(=O)O` [Compound 526, 3-[(2,4-DICHLORO-BENZOYL)- ISOPROPYL-AMINO]-5-PIPERIDIN-4-YL- THIOPHENE-2-CARBOXYLIC ACID; COMPOUND WITH TRIFLUORO-ACETIC ACID], more than 20 µM. The same measure, in the same setting: under `CC(=O)N(Cc1ccc(F)cc1F)c1cc(-c2ccccc2)sc1C(=O)O` [Compound 483, 3-[ACETYL-(2,4-DIFLUORO-BENZYL)- AMINO]-5-PHENYL-THIOPHENE-2- CARBOXYLIC ACID] stands 5 to 20 µM; under `CC([C@H](O[Si](C)(C)C(C)(C)C)c1ccccc1)N(C(=O)c1ccc(Cl)cc1Cl)c1cc(-c2ccccc2)sc1C(=O)O` (stereo in doubt) [Compound 556, 3-[[2-(TERT-BUTYL-DIMETHYL- SILANYLOXY)-1-METHYL-2-PHENYL- ETHYL]-(2,4-DICHLORO-BENZOYL)- AMINO]-5-PHENYL-THIOPHENE-2- CARBOXYLIC ACID], 5 to 20 µM; under `CCN(CC)c1ncc(CN(C(=O)c2ccc(Cl)cc2Cl)c2cc(-c3ccccc3)sc2C(=O)O)s1` [Compound 557, 3-[(2,4-DICHLORO-BENZOYL)-(2- DIETHYLAMINO-THIAZOL-5-YLMETHYL)- AMINO]-5-PHENYL-THIOPHENE-2- CARBOXYLIC ACID], less than 5 µM. Still for that read-out and setting: in the case of `CCCC(=O)N(Cc1ccc(C(C)(C)C)cc1)c1cc(-c2ccccc2)sc1C(=O)O` [Compound 440, 3-[(4-TERT-BUTYL-BENZYL)-BUTYRYL- AMINO]-5-PHENYL-THIOPHENE-2- CARBOXYLIC ACID] it was 5 to 20 µM. Take `Cc1ccc(S(=O)(=O)Nc2cc(-c3ccccc3)sc2C(=O)NCC(=O)O)cc1` [Compound 551, {[5-PHENYL-3-(TOLUENE-4- SULFONYLAMINO)-THIOPHENE-2- CARBONYL]-AMINO}-ACETIC ACID]: the IC50 was in the range of 5 to 20 µM.

Still in this assay, the particulars now being: IC50.
Regarding `CC1CCC(C(=O)N(c2cc(-c3ccccc3)sc2C(=O)O)C(C)C)CC1` (stereo not shown) [Compound 317, 3-[ISOPROPYL-(4-METHYL- CYCLOHEXANECARBONYL)-AMINO]-5- PHENYL-THIOPHENE-2-CARBOXYLIC ACID], the half-inhibitory concentration (IC50) is less than 5 µM.

The same assay, now with this note: related polymerase activity (Example 27 list); read-out: IC50.
Regarding `O=C(O)c1sc(-c2ccccc2)cc1NS(=O)(=O)c1c(F)cc(F)cc1F` [Compound 151, 5-PHENYL-3-(2,4,6-TRIFLUORO-BENZENESULFONYLAMINO)-THIOPHENE-2-CARBOXYLIC ACID], the IC50 was less than 5 µM. Still for that read-out and setting: under `CN(C(=O)c1ccc(F)cc1F)c1cc(-c2ccccc2)sc1C(=O)O` [Compound 78, 3-[(2,4-DIFLUORO-BENZOYL)-METHYL-AMINO]-5-PHENYL-THIOPHENE-2-CARBOXYLIC ACID] stands 5 to 20 µM; under `C=Cc1ccccc1S(=O)(=O)Nc1cc(-c2ccccc2)sc1C(=O)O` [Compound 137, 5-PHENYL-3-(2-VINYL-BENZENESULFONYLAMINO)-THIOPHENE-2-CARBOXYLIC ACID], 5 to 20 µM.

As for `Cc1ccccc1S(=O)(=O)Nc1cc(-c2cc(NS(=O)(=O)c3ccccc3C)c(C(=O)O)s2)sc1C(=O)O` [Compound 161, 4,4′-BIS-(TOLUENE-2-SULFONYLAMINO)-[2,2′]BITHIOPHENYL-5,5′-DICARBOXYLIC ACID], the concentration for half-maximal inhibition (IC50) is less than 5 µM. Same read-out and setting: in the case of `CC(C)(C)OC(=O)N1CCC(N(C(=O)c2ccc(Cl)cc2Cl)c2cc(-c3ccccc3)sc2C(=O)O)CC1` [Compound 365, 4-[(2-CARBOXY-5-PHENYL-THIOPHEN-3- YL)-(2,4-DICHLORO-BENZOYL)-AMINO]- PIPERIDINE-1-CARBOXYLIC ACID #TERT!-BUTYL ESTER] it was less than 5 µM. Still for that read-out and setting: in the case of `Cc1ccccc1S(=O)(=O)Nc1cc(-c2ccoc2)sc1C(=O)O` [Compound 126, 5-FURAN-3-YL-3-(TOLUENE-2-SULFONYLAMINO)-THIOPHENE-2-CARBOXYLIC ACID] it was less than 5 µM; in that of `C=CCN(C(=O)Cc1c(Cl)cccc1Cl)c1cc(-c2ccccc2)sc1C(=O)O` [Compound 353, 3-{ALLYL-[2-(2,6-DICHLORO-PHENYL)- ACETYL]-AMINO}-5-PHENYL-THIOPHENE- 2-CARBOXYLIC ACID], 5 to 20 µM. Same read-out and setting: in the case of `Cc1ccccc1S(=O)(=O)Nc1cc(-c2cccc(OC(F)(F)F)c2)sc1C(=O)O` [Compound 81, 3-(TOLUENE-2-SULFONYLAMINO)-5-(3-TRIFLUOROMETHOXY-PHENYL)-THIOPHENE-2-CARBOXYLIC ACID] it was 5 to 20 µM; in that of `O=C(O)c1sc(-c2ccccc2)cc1NS(=O)(=O)c1ccc(Cl)c(Cl)c1` [Compound 34, 3-(3,4-DICHLORO-BENZENESULFONYLAMINO)-5-PHENYL-THIOPHENE-2-CARBOXYLIC ACID], 5 to 20 µM. For `O=C(O)c1sc(-c2ccccc2)cc1NS(=O)(=O)c1ccc(Cl)cc1` [Compound 18, 3-(4-CHLORO-BENZENESULFONYLAMINO)-5-PHENYL-THIOPHENE-2-CARBOXYLIC ACID], the half-inhibitory concentration (IC50) is less than 5 µM.

With `Cc1ccccc1S(=O)(=O)Nc1cc(-c2ccc(C(=O)O)cc2)sc1C(=O)O` [Compound 248, 5-(4-CARBOXY-PHENYL)-3-(TOLUENE-2-SULFONYLAMINO)-THIOPHENE-2-CARBOXYLIC ACID], the IC50 was less than 5 µM. On the same count and under the same terms, in the case of `CN(C(=O)c1ccc(C(C)(C)C)cc1)c1cc(-c2ccccc2)sc1C(=O)O` [Compound 247, 3-[(4-TERT-BUTYL-BENZOYL)-METHYL-AMINO]-5-PHENYL-THIOPHENE-2-CARBOXYLIC ACID] it was 5 to 20 µM.

As to `O=C(O)c1sc(-c2ccccc2)cc1NS(=O)(=O)c1cc(F)c(Br)cc1F` [Compound 138, 3-(4-BROMO-2,5-DIFLUORO-BENZENESULFONYLAMINO)-5-PHENYL-THIOPHENE-2-CARBOXYLIC ACID], the half-maximal inhibitory concentration (IC50) was less than 5 µM. The same measure, in the same setting: in the case of `CC(C)N(C(=O)C1CCCCCC1)c1cc(-c2ccccc2)sc1C(=O)O` [Compound 380, 3-(CYCLOHEPTANECARBONYL- ISOPROPYL-AMINO)-5-PHENYL- THIOPHENE-2-CARBOXYLIC ACID] it was less than 5 µM; in that of `CC1CCCC(C(=O)N(c2cc(-c3ccccc3)sc2C(=O)O)C(C)C)C1` (stereo not shown) [Compound 371, 3-[(3-METHYL- CYCLOHEXANECARBOXYL)-ISOPROPYL- AMINO]-5-PHENYL-THIOPHENE-2- CARBOXYLIC ACID], more than 20 µM. The same measure, in the same setting: in the case of `Cc1cc(S(=O)(=O)N(C)c2cc(-c3ccccc3)sc2C(=O)O)c(C)cc1Cl` [Compound 5, 3-[(4-CHLORO-2,5-DIMETHYL-BENZENESULFONYL)-METHYL-AMINO]-5-PHENYL-THIOPHENE-2-CARBOXYLIC ACID] it was 5 to 20 µM; in that of `CC(=O)c1cccc(-c2cc(N(C)C(=O)c3ccc(C)cc3)c(C(=O)O)s2)c1` [Compound 272, 5-(3-ACETYL-PHENYL)-3-[METHYL-(4-METHYL-BENZOYL)-AMINO]-THIOPHENE-2-CARBOXYLIC ACID], 5 to 20 µM. Same read-out and setting: in the case of `O=C(O)c1sc(-c2ccccc2)cc1N(Cc1ccccc1)C(=O)c1ccc(Cl)cc1Cl` [Compound 233, 3-[BENZYL-(2,4-DICHLORO-BENZOYL)-AMINO]-5-PHENYL-THIOPHENE-2-CARBOXYLIC ACID] it was less than 5 µM. Regarding `CN(C(=O)c1ccc(C(F)(F)F)c(F)c1)c1cc(-c2ccccc2)sc1C(=O)O` [Compound 279, 3-[(3-FLUORO-4-TRIFLUOROMETHYL-BENZOYL)-METHYL-AMINO]-5-PHENYL-THIOPHENE-2-CARBOXYLIC ACID], the IC50 lay within 5 to 20 µM.

With `CC(=O)c1ccc(-c2cc(NS(=O)(=O)c3ccccc3C)c(C(=O)O)s2)s1` [Compound 229, 5′-ACETYL-4-(TOLUENE-2-SULFONYLAMINO)-[2,2′]BITHIOPHENYL-5-CARBOXYLIC ACID], the IC50 was less than 5 µM. Still for that read-out and setting: under `Cc1cc(C)c(C(=O)N(c2cc(-c3ccccc3)sc2C(=O)O)C(C)C)c(C)c1` [Compound 324, 3-[ISOPROPYL-(2,4,6-TRIMETHYL- BENZOYL)-AMINO]-5-PHENYL- THIOPHENE-2-CARBOXYLIC ACID] stands 5 to 20 µM; under `CN(C(=O)c1cccs1)c1cc(-c2ccccc2)sc1C(=O)O` [Compound 75, 3-(METHYL-(THIOPHENE-2-CARBONYL)-AMINO]-5-PHENYL-THIOPHENE-2-CARBOXYLIC ACID], 5 to 20 µM. Regarding `CN(C(=O)c1ccc(C(F)(F)F)cc1)c1cc(-c2ccccc2)sc1C(=O)O` [Compound 209, 3-[4-(TRIFLUOROMETHYL-BENZOYL)METHYLAMINE]-5-PHENYL-THIOPHENE-2-CARBOXYLIC ACID], the IC50 was in the range of 5 to 20 µM.

For `CCS(=O)(=O)Nc1cc(-c2ccccc2)sc1C(=O)O` [Compound 242, 3-ETHANESULFONYLAMINO-5-PHENYL-THIOPHENE-2-CARBOXYLIC ACID], the concentration for half-maximal inhibition (IC50) was in the range of 5 to 20 µM. On the same count and under the same terms, in the case of `O=C(O)c1sc(-c2ccccc2)cc1NS(=O)(=O)c1ccc(-c2csnn2)s1` [Compound 46, 5-PHENYL-3-(5-[1,2,3]THIADIAZOL-4-YL-THIOPHENE-2-SULFONYLAMINO)-THIOPHENE-2-CARBOXYLIC ACID] it was 5 to 20 µM. In the case of `COc1ccccc1-c1cc(NS(=O)(=O)c2ccccc2C)c(C(=O)O)s1` [Compound 104, 5-(2-METHOXY-PHENYL)-3-(TOLUENE-2-SULFONYLAMINO)-THIOPHENE-2-CARBOXYLIC ACID], the IC50 lay within 5 to 20 µM. Still for that read-out and setting: under `O=C(O)c1sc(-c2ccccc2)cc1NC(=O)N1CCN(c2cccc(C(F)(F)F)c2)CC1` [Compound 156, 5-PHENYL-3-{[4-(3-TRIFLUOROMETHYL-PHENYL)-PIPERAZINE-1-CARBONYL]-AMIN}-THIOPHENE-2-CARBOXYLIC ACID] stands 5 to 20 µM; under `O=C(O)c1sc(-c2ccccc2)cc1NS(=O)(=O)c1cccs1` [Compound 23, 5-PHENYL-3-(THIOPHENE-2-SULFONYLAMINO)-THIOPHENE-2-CARBOXYLIC ACID], less than 5 µM.

Source of the values: patent US6881741B2 (ViroChem Pharma Inc., priority 2001, dated 2005).
